Data taken from the NIST ThermoML archive (doi:10.1007/s10765-009-0665-4).
± gives the expanded uncertainty stated by the source.

Key:
[1] = 293.15 K; 101.33 kPa; Liquid; Sing-around technique in a fixed-path interferometer
[2] = xn = mol fraction of the nth substance listed; settings: 293.15 K, 101 kPa, Liquid; for speed of sound: Sing-around technique in a fixed-path interferometer

CC(C)CO [2-methyl-1-propanol]
speed of sound [1]: 1204.1 ± 5.2 m/s

CCCCO [butan-1-ol]
speed of sound [1]: 1256.3 ± 1.3 m/s

C1CCCCC1 [cyclohexane]
speed of sound [1]: 1279 ± 1.3 m/s

C1CCCCC1 [cyclohexane] + CCCCO
speed of sound ([2]; x2 = 0.00115): 1278.7 ± 1.3 m/s
speed of sound ([2]; x2 = 0.00245): 1277.7 ± 1.3 m/s
speed of sound ([2]; x2 = 0.0124): 1274.6 ± 1.3 m/s
speed of sound ([2]; x2 = 0.0262): 1271.5 ± 1.3 m/s
speed of sound ([2]; x2 = 0.04084): 1269.3 ± 1.3 m/s
speed of sound ([2]; x2 = 0.07249): 1265.3 ± 1.3 m/s
speed of sound ([2]; x2 = 0.1395): 1258.6 ± 1.3 m/s
speed of sound ([2]; x2 = 0.1897): 1254.6 ± 1.3 m/s
speed of sound ([2]; x2 = 0.3017): 1248.8 ± 1.3 m/s
speed of sound ([2]; x2 = 0.5175): 1244.4 ± 1.3 m/s
speed of sound ([2]; x2 = 0.6162): 1244.8 ± 1.3 m/s
speed of sound ([2]; x2 = 0.7983): 1248.2 ± 1.3 m/s
mass density ([2]; x2 = 0.00115): 778.6 ± 0.5 kg/m3
mass density ([2]; x2 = 0.00245): 778.5 ± 0.5 kg/m3
mass density ([2]; x2 = 0.0124): 778.5 ± 0.5 kg/m3
mass density ([2]; x2 = 0.0262): 778.7 ± 0.5 kg/m3
mass density ([2]; x2 = 0.04084): 778.8 ± 0.5 kg/m3
mass density ([2]; x2 = 0.07249): 779.3 ± 0.5 kg/m3
mass density ([2]; x2 = 0.1395): 780.4 ± 0.5 kg/m3
mass density ([2]; x2 = 0.1897): 781.4 ± 0.5 kg/m3
mass density ([2]; x2 = 0.3017): 784 ± 0.5 kg/m3
mass density ([2]; x2 = 0.5175): 790.4 ± 0.5 kg/m3
mass density ([2]; x2 = 0.6162): 793.7 ± 0.5 kg/m3
mass density ([2]; x2 = 0.7983): 800.8 ± 0.5 kg/m3

CCCCCC [hexane]
speed of sound [1]: 1098.9 ± 1.6 m/s

CCCCCC [hexane] + CCCCO
speed of sound ([2]; x2 = 0.00305): 1099 ± 1.6 m/s
speed of sound ([2]; x2 = 0.04764): 1099.2 ± 1.6 m/s
speed of sound ([2]; x2 = 0.1026): 1099.8 ± 1.5 m/s
speed of sound ([2]; x2 = 0.1225): 1100.5 ± 1.5 m/s
speed of sound ([2]; x2 = 0.1509): 1101.6 ± 1.5 m/s
speed of sound ([2]; x2 = 0.2261): 1105.9 ± 1.5 m/s
speed of sound ([2]; x2 = 0.2979): 1112.1 ± 1.5 m/s
speed of sound ([2]; x2 = 0.4965): 1140 ± 1.4 m/s
speed of sound ([2]; x2 = 0.6128): 1160.2 ± 1.3 m/s
speed of sound ([2]; x2 = 0.6817): 1174 ± 1.3 m/s
speed of sound ([2]; x2 = 0.7658): 1192.1 ± 1.3 m/s
speed of sound ([2]; x2 = 0.8937): 1224.5 ± 1.3 m/s
mass density ([2]; x2 = 0.00305): 659.9 ± 0.7 kg/m3
mass density ([2]; x2 = 0.04764): 664.4 ± 0.7 kg/m3
mass density ([2]; x2 = 0.1026): 670.3 ± 0.7 kg/m3
mass density ([2]; x2 = 0.1225): 672.4 ± 0.7 kg/m3
mass density ([2]; x2 = 0.1509): 675.6 ± 0.7 kg/m3
mass density ([2]; x2 = 0.2261): 684.4 ± 0.7 kg/m3
mass density ([2]; x2 = 0.2979): 693.4 ± 0.7 kg/m3
mass density ([2]; x2 = 0.4965): 720.9 ± 0.6 kg/m3
mass density ([2]; x2 = 0.6128): 738.8 ± 0.6 kg/m3
mass density ([2]; x2 = 0.6817): 750.1 ± 0.6 kg/m3
mass density ([2]; x2 = 0.7658): 764.5 ± 0.5 kg/m3
mass density ([2]; x2 = 0.8937): 788.1 ± 0.5 kg/m3
